Where two headings read alike, the source gives them in different places.
How the values were obtained:
PDGFR = target: T1, PDGFR (Homo sapiens, UniProt P09619); assay: Assay for modulation of PDGFR activity (ELISA); format: biochemical; settings: read-out: bio PDGFR IC50
T1 construct: expressed in transfected cells; host or cells: NIH3T3
Method: Using the following reagents, supplies, and methods, the ability of the compounds of the invention to modulate the in vitro activity of the PDGFR can be readily determined in an enzyme-linked immunosorbent assay (ELISA).
Monoclonal anti-PDGFR antibody (28D4C10) is stored at −20° C. in 50 mL tubes prior to use.
Lysates from PDGFR-β expressing NIH3T3 cells are obtained and stored at −80° C. in 1 mL aliquots. PDGFR-β expression in eukaryotic cells is well known in the art. Lysates are prepared by the following method. Place carrier dishes in ice trays, and after cooling, remove the media and replace with ice cold PBS. Remove the PBS and repeat. […] Take up lysate with a pipettor and add to a 30 mL centrifuge tube on ice. Vortex the tubes for 30-60 seconds and then centrifuge for 10 minutes at 7000 rpm in a J-20 rotor which has been precooled to below 0° C. Recover the supernatants and combine them in a 250 mL tube and place on ice. Perform protein determination to measure the total quantity of protein per mL of solution. Aliquot the lysate into 1 mL fractions and store at −80° C.
Coat Corning 96 well ELISA plates with 0.5 μg per well 28D4C10 antibody in a volume of 100 μl PBS overnight, at 4° C. and remove unbound antibody, 28D4C10, from wells by inverting plate to remove liquid. Wash 1× with distilled H2O by filling wells. Pat the plate on a paper towel to remove excess liquid.
Add 150 μL of Blocking Buffer to each well. Incubate for 30 minutes at room temperature, with shaking and wash plate 3× with deionized water, then once with TBST. Pat plate on a paper towel to remove excess liquid and bubbles
Dilute lysate in PBS (10 mg lysate/100 μL PBS). Add 100 μL of diluted lysate to each well. Shake at room temperature for 60 min. Wash plate 3× with deionized water, then once with TBST. Pat plate on a paper towel to remove excess liquid and bubbles.
Add 80 μL Kinase Buffer to ELISA plate containing captured PDGFR.
Dilute drugs/extracts 1:10 (unless specified otherwise) in TBS+10% DMSO in 96-well polypropylene plates. (i.e., 10 μL compound+90 μL (TBS+10% DMSO)). Add 10 μL diluted drugs/extracts to ELISA plate. […] Incubate for 30 minutes while shaking at room temperature.
After 30 minutes stop reaction with addition of 10 μL of 200 mM EDTA pH 8.0 for 20 mM final in well. Wash 4× with deionized water, twice with TBST.
Incubate 30-45 minutes at room temperature, with shaking. Wash plate 3× with deionized water, then once with TBST. Pat plate on a paper towel to remove excess liquid and bubbles.
Incubate 30 minutes at room temperature with shaking. Wash plate 3× with deionized water, then once with TBST. Pat plate on a paper towel to remove excess liquid and bubbles.
Add 100 μL of ABTS/H2O2 solution to each well. Incubate 10 to 30 minutes while shaking. Remove any bubbles. If necessary stop reaction with the addition of 100 μL of 0.2M HCl per well
(§1) Read assay on Dynatech MR7000 ELISA reader.

EGFR = target: T2, EGFR (Homo sapiens, UniProt P00533); assay: Assay for modulation of EGFR activity (ELISA); format: biochemical
T2 construct: A431 […] cell lysate is stored at −80° C; host or cells: A431 cell lysate
Method: Using the following reagents, supplies, and method, the ability of compounds of the invention to modulate the in vitro activity of EGFR can be readily determined in an ELISA.
A431 […] cell lysate is stored at −80° C.
ATP/MnCl2 phosphorylation mix is prepared by adding 300 μL of 1.0 mM ATP and […] of 1M MnCl2 to 9.2 mL of dH2O and mixing. Ten mL of phosphorylation mix is enough for about 6 assay plates. Note that the mixture should be made fresh and kept on ice immediately before use, and that although the preferred ATP is fresh from powder stock, any remaining stock solution of ATP may be frozen at −20° C. in small aliquots to be used at a later time.
Coat Corning 96 well ELISA plates with 0.5 μg per well with SUMO1 in a volume of 100 μL PBS overnight, at 4° C. Remove unbound SUMO1 from wells by inverting plate to remove liquid. Wash 1× with distilled H2O by filling wells. Pat the plate on a paper towel to remove excess liquid.
Add 150 μL of Blocking Buffer to each well. Incubate for 30 minutes at room temperature, with shaking. Wash plate 3× with deionized water, then once with TBST. Pat plate on a paper towel to remove excess liquid and bubbles.
Dilute lysate in PBS (7 μg lysate/[…]) and add 100 μL of diluted lysate to each well. Shake at room temperature for 60 minutes. Wash 1× with distilled H2O by filling wells. Pat the plate on a paper towel to remove excess liquid.
Add 120 μL TBST to ELISA plate containing captured EGFR.
Dilute drugs/extracts 1:10 (unless specified otherwise) in TBST in 96-well polypropylene plates. (i.e., 10 μL compound+90 μL TBST). Add 13.5 μL diluted drugs/extracts to ELISA plate. […] Incubate for 30 minutes while shaking at room temperature.
Approximately 150 μL final volume in well with 3 uM ATP/5 mM MnCl2 final concentration in well. Incubate 5 minutes while shaking. Note that this is a timed event. It is critical that ATP/MnCl2 phosphorylates the receptor for only 5 minutes. It is best to add the ATP/MnCl2 with an automated 96 place pipettor workstation, then 5 minutes later stop the reaction with EDTA using the same workstation. Alternatively, addition can be performed using a 12 channel pipettor 1 row at a time, leaving 20 seconds between each row so that the reaction may be stopped with EDTA exactly 5 minutes later (this depends on the number of plates being phosphorylated in one batch). Shake between each addition.
[…] This is done using either the same work station as above, or the same timing method employed with the 12 channel pipettor. After the EDTA has been added, shake for 1 minute. Wash 4× with deionized water, twice with TBST.
Add 100 μL per well of anti-phosphotyrosine (1:3000 dilution in TBST). Incubate 30-45 minutes at room temperature, with shaking. Wash 1× with distilled H2O by filling wells. Pat the plate on a paper towel to remove excess liquid.
Incubate 30 minutes at room temperature, with shaking. Wash 1× with distilled H2O by filling wells. Pat the plate on a paper towel to remove excess liquid.
Add 100 μL of ABTS/H2O2 solution to each well. Incubate 5 to 10 minutes while shaking. Remove any bubbles. If necessary stop reaction with the addition of 100 μL of 0.2M HCl per well.
as §1

T1 sequence (P09619 33-1106, species assumed): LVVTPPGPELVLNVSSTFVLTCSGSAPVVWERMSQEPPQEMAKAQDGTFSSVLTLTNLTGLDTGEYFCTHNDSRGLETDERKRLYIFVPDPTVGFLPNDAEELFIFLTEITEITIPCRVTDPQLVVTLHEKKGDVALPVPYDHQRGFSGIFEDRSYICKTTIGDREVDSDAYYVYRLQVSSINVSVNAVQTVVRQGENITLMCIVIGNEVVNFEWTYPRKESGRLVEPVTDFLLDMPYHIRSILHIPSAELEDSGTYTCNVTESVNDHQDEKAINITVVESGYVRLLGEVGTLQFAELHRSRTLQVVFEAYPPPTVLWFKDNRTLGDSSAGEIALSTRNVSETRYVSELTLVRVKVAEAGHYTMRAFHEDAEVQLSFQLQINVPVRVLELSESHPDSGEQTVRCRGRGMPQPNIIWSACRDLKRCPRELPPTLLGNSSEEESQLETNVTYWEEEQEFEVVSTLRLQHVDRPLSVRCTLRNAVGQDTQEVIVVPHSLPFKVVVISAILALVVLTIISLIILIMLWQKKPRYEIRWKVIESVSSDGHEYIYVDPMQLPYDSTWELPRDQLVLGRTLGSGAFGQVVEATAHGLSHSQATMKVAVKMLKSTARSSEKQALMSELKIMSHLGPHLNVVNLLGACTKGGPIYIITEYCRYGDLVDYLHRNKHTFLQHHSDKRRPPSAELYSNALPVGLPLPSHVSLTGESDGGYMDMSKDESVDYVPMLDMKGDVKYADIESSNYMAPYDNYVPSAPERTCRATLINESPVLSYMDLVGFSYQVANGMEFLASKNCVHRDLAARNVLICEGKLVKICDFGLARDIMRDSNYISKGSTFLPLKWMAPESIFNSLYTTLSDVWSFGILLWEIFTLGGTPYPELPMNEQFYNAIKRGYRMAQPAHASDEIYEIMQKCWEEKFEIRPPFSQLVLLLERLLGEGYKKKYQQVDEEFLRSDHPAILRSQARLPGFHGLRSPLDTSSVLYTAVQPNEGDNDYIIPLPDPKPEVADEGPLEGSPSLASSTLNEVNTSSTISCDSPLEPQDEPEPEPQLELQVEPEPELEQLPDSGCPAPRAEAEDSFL
T2 sequence (P00533 25-1210): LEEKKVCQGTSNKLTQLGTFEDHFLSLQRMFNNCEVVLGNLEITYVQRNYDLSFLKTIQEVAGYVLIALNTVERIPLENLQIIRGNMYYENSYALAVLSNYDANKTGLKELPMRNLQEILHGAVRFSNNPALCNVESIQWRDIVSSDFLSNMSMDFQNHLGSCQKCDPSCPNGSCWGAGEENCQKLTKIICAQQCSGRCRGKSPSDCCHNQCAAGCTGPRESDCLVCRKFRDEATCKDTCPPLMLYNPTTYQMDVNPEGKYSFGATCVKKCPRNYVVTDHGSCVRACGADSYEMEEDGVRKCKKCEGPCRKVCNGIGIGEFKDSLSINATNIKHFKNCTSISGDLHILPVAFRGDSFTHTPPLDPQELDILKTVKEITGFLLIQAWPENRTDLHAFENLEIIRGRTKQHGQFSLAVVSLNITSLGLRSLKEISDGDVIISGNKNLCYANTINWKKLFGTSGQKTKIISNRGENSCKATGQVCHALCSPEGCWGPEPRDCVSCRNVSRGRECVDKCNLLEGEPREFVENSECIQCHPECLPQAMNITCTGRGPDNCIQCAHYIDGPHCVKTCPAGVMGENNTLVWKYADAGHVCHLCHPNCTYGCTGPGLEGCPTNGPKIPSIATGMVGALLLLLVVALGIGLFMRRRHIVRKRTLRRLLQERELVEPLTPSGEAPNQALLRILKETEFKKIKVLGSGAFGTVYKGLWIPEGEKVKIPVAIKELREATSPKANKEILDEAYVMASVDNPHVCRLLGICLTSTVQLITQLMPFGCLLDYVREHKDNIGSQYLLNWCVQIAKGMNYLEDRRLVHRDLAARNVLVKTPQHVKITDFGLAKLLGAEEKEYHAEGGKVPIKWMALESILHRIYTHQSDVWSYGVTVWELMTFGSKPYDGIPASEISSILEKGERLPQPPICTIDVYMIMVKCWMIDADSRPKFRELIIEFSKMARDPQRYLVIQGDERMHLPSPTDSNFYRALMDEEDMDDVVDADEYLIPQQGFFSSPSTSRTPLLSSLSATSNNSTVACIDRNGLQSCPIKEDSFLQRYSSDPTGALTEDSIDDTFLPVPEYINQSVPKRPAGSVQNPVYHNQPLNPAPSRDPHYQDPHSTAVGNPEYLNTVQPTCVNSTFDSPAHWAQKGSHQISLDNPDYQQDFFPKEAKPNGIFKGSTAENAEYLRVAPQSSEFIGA

Q: How did the IC50 (PDGFR) turn out when `Cc1[nH]c(C=C2C(=O)Nc3ncnc(Nc4ccc(F)c(Cl)c4)c32)c(C)c1CCC(=O)O` [Formula 19, 3-{5-[4-(3-CHLORO-4-FLUORO-PHENYLAMINO)-6-OXO-6,7-DIHYDRO-PYRROLO[2,3-D]PYRIMIDIN-5-YLIDENEMETHYL]-2,4-DIMETHYL-1H-PYRROL-3-YL}-PROPIONIC ACID] was run?
A: 12800 nM

Q: What about the IC50 (EGFR; read-out: bio EGFR IC50) of the same compound?
A: 170 nM

Q: What does the source list for `O=C1Nc2ncnc(Nc3ccc(F)c(Cl)c3)c2/C1=C/c1ccc(C(=O)N2CCOCC2)[nH]1` [Formula 33]?
A: IC50 (PDGFR): > 20000 nM; IC50 (EGFR; read-out: bio EGFR IC50): 900 nM

Q: Which IC50 (PDGFR) does the source give for `Cc1[nH]c(/C=C2\C(=O)Nc3ncnc(Nc4ccc(F)c(Cl)c4)c32)c(C)c1C(=O)N1CCOCC1` [Formula 43] here?
A: > 20000 nM

Q: What about the IC50 (EGFR; read-out: bio EGFR IC50) of the same compound?
A: 860 nM

Q: For `Cc1cc(C(=O)N2CCOCC2)[nH]c1/C=C1\C(=O)Nc2ncnc(Nc3ccc(F)c(Cl)c3)c21` [Formula 26], which IC50 (EGFR) is on record?
A: 160 nM

Q: For `Cc1[nH]c(/C=C2\C(=O)N(C)c3ncnc(Nc4ccc(F)c(Cl)c4)c32)c(C)c1CCC(=O)O` [Formula 40], which IC50 (EGFR; read-out: bio EGFR IC50) is on record?
A: 4200 nM

Q: For `Cc1[nH]c(/C=C2\C(=O)Nc3ncnc(Nc4ccc(F)c(Cl)c4)c32)c(C)c1CCC(=O)N1CCOCC1` [Formula 30], which IC50 (PDGFR) is on record?
A: > 20000 nM

Q: What about the IC50 (EGFR; read-out: bio EGFR IC50) of the same compound?
A: 770 nM

Q: With `Cc1cc(C)c(/C=C2\C(=O)N(C)c3ncnc(Nc4ccc(F)c(Cl)c4)c32)[nH]1` [Formula 38] as the compound, how does the IC50 (EGFR; read-out: bio EGFR IC50) read?
A: 5600 nM

Q: For `Cc1cc(C(=O)N2CC(C)N(C)C(C)C2)[nH]c1/C=C1\C(=O)Nc2ncnc(Nc3ccc(F)c(Cl)c3)c21` (stereo not shown) [Formula 53], which IC50 (EGFR; read-out: bio EGFR IC50) is on record?
A: < 156 nM

Q: `Cc1[nH]c(/C=C2\C(=O)Nc3ncnc(Nc4ccc(F)c(Cl)c4)c32)c(C)c1CCC(=O)N1CCCC1` [Formula 24] was tested. Which IC50 (PDGFR) did it give?
A: > 20000 nM

Q: And the IC50 (EGFR; read-out: bio EGFR IC50)?
A: 890 nM

Q: For `Cc1cc(C(=O)N2CCOCC2)[nH]c1/C=C1\C(=O)Nc2ncnc(NC(C)c3ccccc3)c21` (stereo not shown) [Formula 46], which IC50 (EGFR; read-out: bio EGFR IC50) is on record?
A: 1.2 nM

Q: For `Cc1cc(C(=O)N2CCN(C)CC2)[nH]c1/C=C1\C(=O)Nc2ncnc(Nc3ccc(F)c(Cl)c3)c21` [Formula 39], which IC50 (EGFR) is on record?
A: 4 nM

Q: `Cc1cc(C(=O)O)[nH]c1/C=C1\C(=O)Nc2ncnc(Nc3ccc(F)c(Cl)c3)c21` [Formula 47] was tested. Which IC50 (EGFR; read-out: bio EGFR IC50) did it give?
A: 36 nM

Q: With `CN1CCN(C(=O)c2ccc(/C=C3\C(=O)Nc4ncnc(Nc5ccc(F)c(Cl)c5)c43)[nH]2)CC1` [Formula 45] as the compound, how does the IC50 (PDGFR) read?
A: > 20000 nM

Q: And the IC50 (EGFR; read-out: bio EGFR IC50)?
A: 50 nM

Q: For `CCN1CCN(C(=O)c2cc(C)c(/C=C3\C(=O)Nc4ncnc(Nc5ccc(F)c(Cl)c5)c43)[nH]2)CC1` [Formula 54], which IC50 (EGFR; read-out: bio EGFR IC50) is on record?
A: < 156 nM

Q: With `Cc1[nH]c(/C=C2\C(=O)N(C)c3ncnc(Nc4ccc(F)c(Cl)c4)c32)c(C)c1CCCN1CCOCC1` [Formula 44] as the compound, how does the IC50 (EGFR; read-out: bio EGFR IC50) read?
A: > 20000 nM

Q: For `Cc1cc(CCC(=O)O)[nH]c1/C=C1\C(=O)N(C)c2ncnc(Nc3ccc(F)c(Cl)c3)c21` [Formula 42], which IC50 (EGFR; read-out: bio EGFR IC50) is on record?
A: 10400 nM

Q: How did the IC50 (EGFR) turn out when `Cc1c(C(=O)N2CCN(C)CC2)c[nH]c1/C=C1\C(=O)Nc2ncnc(Nc3ccc(F)c(Cl)c3)c21` [Formula 29] was run?
A: 450 nM

Q: Which results are given for `Cc1[nH]c(/C=C2\C(=O)Nc3ncnc(Nc4ccc(F)c(Cl)c4)c32)c(C)c1C(=O)N1CCN(C)CC1` [Formula 41]?
A: IC50 (PDGFR): > 20000 nM; IC50 (EGFR; read-out: bio EGFR IC50): 540 nM

— patent US6908930B2, “4-substituted 7-AZA-indolin-2-ones and their use as protein kinase inhibitors” (Sugen, Inc., priority 1999, dated 2005)
